Counter-ions that a name gives are not always drawn. Like-named read-outs stand apart in the source and are kept apart here.
Test system: cultured human mast cells (CHMC)
Assay: CHMC low cell density IgE activation: tryptase assay
Assay type: cell-based
Settings: IgE activation
Outline: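 Tryptase release, fluorogenic substrate, 30 min RT. Prior anti-IgE stimulation of CHMC, 30 min, 37 °C, after 1 hr preincubation at 1000–1500 cells/well in MT; unstimulated wells received MT.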

[1] = low cell density CHMC, tryptase, 8 pt, read-out: LD Tryptase, CHMC, IgE, 8 pt
[2] = Homo sapiens, Mast cell, low cell density CHMC, tryptase, 8 pt, read-out: LD Tryptase, CHMC, IgE, 8 pt
[3] = Homo sapiens, Mast cell, low cell density CHMC, tryptase, 3 pt, read-out: LD Tryptase, CHMC, IgE, 3 pt
[4] = Homo sapiens, Mast cell, low cell density, 3 pt, read-out: LD Tryptase, CHMC, IgE, 3 pt
[5] = low cell density, 3 pt, read-out: LD Tryptase, CHMC, IgE, 3 pt

Fc1cnc(Nc2ccc3c(c2)OCCO3)nc1Nc1ccc2c(c1)OC(F)(F)C(F)(F)O2 [Compound 367]
IC50 (low cell density CHMC, tryptase, 3 pt, read-out: LD Tryptase, CHMC, IgE, 3 pt): < 10 µM
IC50 [1]: < 10 µM

COc1cc(Cl)cc(Nc2ncc(F)c(Nc3ccc4c(c3)NC(=O)C(C)(C)O4)n2)c1 [Compound 369, N2-(3-Chloro-5-methoxyphenyl)-N4-(2,2-dimethyl-3-oxo-4H-benz[1,4]oxazin-6-yl)-5-fluoro-2,4-pyrimidinediamine]
IC50 [2]: < 10 µM

COc1cc(Cl)cc(Nc2ncc(F)c(Nc3ccc4c(c3)OCCO4)n2)c1 [Compound 370]
IC50 [2]: < 10 µM

CNC(=O)c1cc2cccc(Nc3ncc(F)c(Nc4ccc5c(c4)OCO5)n3)c2[nH]1 [Compound 371, 5-Fluoro-N4-(3,4-methylenedioxyphenyl)-N2-[2-(N-methylamino)carbonylindol-7-yl]-2,4-pyrimidinediamine]
IC50 [2]: < 10 µM

COc1cc(Nc2ncc(F)c(Nc3ccc4c(c3)OCO4)n2)cc(OC)c1 [Compound 372, N2-(3,5-Dimethoxyphenyl)-5-fluoro-N4-(3,4-methylenedioxyphenyl)-2,4-pyrimidinediamine]
IC50 [2]: < 10 µM

COc1cc(Nc2ncc(F)c(Nc3ccc4c(c3)OCO4)n2)cc(C(F)(F)F)c1 [Compound 373, 5-Fluoro-N4-(3,4-methylenedioxyphenyl)-N2-(3-methoxy-5-trifluoromethylphenyl)-2,4-pyrimidinediamine]
IC50 [3]: < 10 µM

Cc1cc(Nc2ncc(F)c(Nc3ccc4c(c3)OCO4)n2)cc(C(F)(F)F)c1 [Compound 374]
IC50 [3]: > 10 µM

Fc1cnc(Nc2cc(Cl)cc(Cl)c2)nc1Nc1ccc2c(c1)OCO2 [Compound 375]
IC50 [3]: < 10 µM

Cc1cc(C)cc(Nc2ncc(F)c(Nc3ccc4c(c3)OCO4)n2)c1 [Compound 376]
IC50 [2]: < 10 µM

COc1ccc(Nc2nc(Nc3cc(OC)c(Cl)cc3OC)ncc2F)cc1Cl [Compound 377]
IC50 [3]: < 10 µM

COc1ccc(Nc2ncc(F)c(Nc3ccc4c(c3)NC(=O)C(C)(C)O4)n2)cc1Cl [Compound 378, N2-(3-Chloro-4-methoxyphenyl)-N4-(2,2-dimethyl-3-oxo-4H-benz[1,4]oxazin-6-yl)-5-fluoro-2,4-pyrimidinediamine p-Toluene Sulfonic Acid Salt]
IC50 [2]: < 10 µM

COc1cc(Nc2ncc(F)c(Nc3ccc4c(c3)OCCO4)n2)c(OC)cc1Cl [Compound 379]
IC50 [3]: < 10 µM

COc1cc(Nc2nc(Nc3cc(OC)c(Cl)cc3OC)ncc2F)cc(OC)c1 [Compound 380]
IC50 [3]: < 10 µM

COC(=O)c1cc2cc(Nc3ncc(F)c(Nc4cc(OC)cc(OC)c4)n3)ccc2o1 [Compound 381]
IC50 [3]: < 10 µM
IC50 [2]: < 10 µM

COc1cc(Nc2nc(Nc3cccc4cc(C(=O)O)[nH]c34)ncc2F)cc(OC)c1 [Compound 383]
IC50 [3]: < 10 µM

COC(=O)C(C)(C)Oc1ccc(Nc2nc(Nc3cc(C)cc(C)c3)ncc2F)cc1Cl [Compound 402, N4-[3-Chloro-4-(methoxycarbonyl-1,1-dimethylmethyleneoxy)phenyl]-N2-(3,5-dimethylphenyl)-5-fluoro-2,4-pyrimidinediamine]
IC50 [1]: < 10 µM

COC(=O)C(C)(C)Oc1ccc(Nc2nc(Nc3cc(C)cc(C)c3)ncc2F)cc1 [Compound 403, N2-(3,5-Dimethylphenyl)-N4-[4-(methoxycarbonyl-1,1-dimethylmethyleneoxy)phenyl]-5-fluoro-2,4-pyrimidinediamine]
IC50 [1]: < 10 µM

CCOC(=O)C(C)(C)Oc1ccc(Nc2nc(Cl)ncc2F)cc1Cl [Compound 407, 2-Chloro-N4-[3-chloro-4-(ethoxycarbonyl-1,1-dimethylmethyleneoxy)phenyl]-5-fluoro-4-pyrimidineamine]
IC50 [1]: < 10 µM

CCOC(=O)C(C)(C)Oc1ccc(Nc2nc(Nc3cc(OC)cc(OC)c3)ncc2F)cc1Cl [Compound 408, N4-[3-Chloro-4-(ethoxycarbonyl-1,1-dimethylmethyleneoxy)phenyl]-N2-(3,5-dimethoxyphenyl)-5-fluoro-2,4-pyrimidinediamine]
IC50 [1]: < 10 µM

CNC(=O)COc1cccc(Nc2ncc(F)c(Nc3ccc(C(=O)NC)c(Cl)c3)n2)c1 [Compound 483, N4-[3-Chloro-4-(N-methylamino)carbonylphenyl]-5-fluoro-N2-[3-(N-methylamino)carbonylmethyleneoxyphenyl]-2,4-pyrimidinediamine]
IC50 (low cell density, 8 pt, read-out: LD Tryptase, CHMC, IgE, 8 pt): < 10 µM

CNC(=O)c1ccc(Nc2nc(Nc3ccc(Cl)c(C(=O)NC)c3)ncc2F)cc1Cl [Compound 484]
IC50 [4]: > 10 µM

CNC(=O)c1ccc(Nc2nc(Nc3ccc4cc[nH]c4c3)ncc2F)cc1Cl [Compound 485, N4-[3-Chloro-4-(N-methylamino)carbonylphenyl]-5-fluoro-N2-(indol-6-yl)-2,4-pyrimidinediamine]
IC50 [4]: < 10 µM
IC50 (Homo sapiens, Mast cell, low cell density, 8 pt, read-out: LD Tryptase, CHMC, IgE, 8 pt): < 10 µM

Oc1cccc(Nc2nc(Nc3cccc(-c4ncco4)c3)ncc2F)c1 [Compound 511, 5-Fluoro-N4-(3-hydroxyphenyl)-N2-[3-(oxazol-2-yl)phenyl]-2,4-pyrimidinediamine]
IC50 [4]: < 10 µM

Oc1cccc(Nc2nc(Nc3cccc(-c4ncon4)c3)ncc2F)c1 [Compound 522]
IC50 [4]: < 10 µM

COc1cc(N(C)c2nc(Cl)ncc2F)cc(OC)c1OC [Compound 523]
IC50 [4]: > 10 µM

Cc1cc(Nc2nc(Nc3cccc(-c4ncco4)c3)ncc2F)no1 [Compound 524, 5-Fluoro-N4-(5-methylisoxazol-3-yl)-N2-[3-(oxazol-2-yl)phenyl]-2,4-pyrimidinediamine]
IC50 [4]: < 10 µM

Cc1onc(-c2ccccc2)c1Nc1nc(Nc2cccc(-c3ncco3)c2)ncc1F [Compound 525]
IC50 [4]: < 10 µM

Cn1nc(-c2ccccc2)cc1Nc1nc(Nc2cccc(-c3ncco3)c2)ncc1F [Compound 526]
IC50 [4]: < 10 µM

COC(=O)c1cc(Nc2ncc(F)c(Nc3cc(C(=O)OC)cc(-c4ncco4)c3)n2)cc(-c2ncco2)c1 [Compound 527]
IC50 [4]: < 10 µM

Cc1noc(C)c1Nc1ncc(F)c(Nc2c(C)noc2C)n1 [Compound 528]
IC50 [4]: > 10 µM

Fc1cnc(Nc2cc(-c3ncco3)cc(C(F)(F)F)c2)nc1Nc1cc(-c2ncco2)cc(C(F)(F)F)c1 [Compound 529]
IC50 [4]: < 10 µM

CC(C)(C)c1nnc(-c2cccc(Nc3ncc(F)c(Nc4ccc5c(c4)OCCO5)n3)c2)o1 [Compound 531, N2-[ (2-tert-Butyl-1,3,4-oxadiazol-5-yl)phenyl]-N4-(3,4-ethylenedioxyphenyl)-5-fluoro-2,4-pyrimidinediamine]
IC50 [5]: < 10 µM

CC(C)(C)c1nnc(-c2cccc(Nc3ncc(F)c(Nc4cccc(O)c4)n3)c2)o1 [Compound 532, N2-[ (2-tert-Butyl-1,3,4-oxadiazol-5-yl)phenyl]-5-fluoro-N4-(3-hydroxyphenyl)-2,4-pyrimidinediamine]
IC50 [5]: < 10 µM

CN(c1ccc2c(c1)OCCO2)c1nc(NN)ncc1F [Compound 533, N4-(3,4-Ethylenedioxyphenyl)-5-fluoro-N4-methyl-2-hydrazine-4-pyrimidineamine]
IC50 [5]: > 10 µM

Cc1noc(C)c1Nc1nc(Nc2cccc(-c3ncco3)c2)ncc1F [Compound 534, N4-(3,5-Dimethylisoxazol-4-yl)-5-fluoro-N2-[3-(oxazol-2-yl)phenyl]-2,4-pyrimidinediamine]
IC50 [4]: < 10 µM

COC(=O)c1cc(Nc2ncc(F)c(Nc3c(C)noc3C)n2)cc(-c2ncco2)c1 [Compound 535]
IC50 [4]: < 10 µM
